Test in all cases: Bacterial viability of biofilm after VNB cluster disruption and tobramycin treatment
Common to all, as to type: cell-based

For test [1], the system named is Burkholderia multivorans LMG18825 biofilms. To be noted: 70 nm AuNPs + single 7 ns pulse of 561 nm laser (2.8 J/cm2), then tobramycin 32 μg/mL for 24 hours at 37° C.; vs tobramycin alone. The procedure: (§1) In the study, the synergistic effect of vapour nanobubble mediated cluster disruption and antibiotic treatment was evaluated for 3 types of bacteria. As gram-negatives, Burkholderia multivorans LMG18825 and Pseudomonas aeruginosa LESB58 were selected. Staphylococcus aureus Mu50, often implicated in skin and soft tissue infections, was chosen as a challenging representative of gram-positive bacteria. AuNPs were evaluated for achieving efficient loading and disruption of biofilm clusters. […] The Bacteria are stained with SYTO59 and the gold particles were detected by reflection of the laser light.
(§2) In further experiments, the synergistic effect of VNB biofilm cluster disruption with relevant antibiotics or disinfectants is evaluated. The biofilm first received a laser treatment for cluster disruption, followed by treatment with tobramycin. Proper controls were taken into account: untreated control, only AuNPs, only laser treatment, VNBs only, AuNPs with tobramycin. Each location in the biofilm received a single 7 ns pulse of 561 nm laser light (2.8 J/cm2) followed by Tobramycin treatment at 32 μg/mL, 16 μg/mL and 1024 μg/mL for Burkholderia multivorans, Pseudomonas aeruginosa and Staphylococcus aureus biofilms, respectively. The bacterial viability following vapour nanobubble generation and antibiotic treatment is shown in FIG. 5 The different experiments are as follows: […]

In test [2] the test system is Staphylococcus aureus Mu50 biofilms. As to conditions: 70 nm AuNPs + single 7 ns pulse of 561 nm laser (2.8 J/cm2), then tobramycin 1024 μg/mL for 24 hours at 37° C. The procedure: as §1, §2
For test [3], the system named is Pseudomonas aeruginosa LESB58 biofilms. On the procedure: as §1
as §2, with “respectively.” for “respectively. The bacterial viability following vapour nanobubble generation and antibiotic treatment is shown in FIG. 5 The different experiments are as follows:”
In another experiment, the effect of applying different laser pulses on the biofilm was evaluated. […]

Regarding `NC[C@H]1O[C@H](O[C@H]2[C@H](O)[C@@H](O[C@H]3O[C@H](CO)[C@@H](O)[C@H](N)[C@H]3O)[C@H](N)C[C@@H]2N)[C@H](N)C[C@@H]1O` [tobramycin], in test [1], the “increased eradication potency of tobramycin by use of VNBs” value was approximately 50 times. Besides, the “CFU decrease of combined VNB-tobramycin treatment as compared to tobramycin alone” value is on record as approximately 10 times in test [2] and approximately 20 times in test [3] (70 nm AuNPs + single 7 ns pulse of 561 nm laser (2.8 J/cm2), then tobramycin 16 μg/mL for 24 hours at 37° C.). Further, the “CFU decrease in comparison with treatment with tobramycin alone” value in test [3] (10 laser pulses of 7 ns of 561 nm (2.8 J/cm2) per location (10× VNB formation), then tobramycin for 24 hours at 37° C.) is listed as approximately 4000 times.

For the origin of these results see patent publication US20180200368A1, “DISRUPTION OR ALTERATION OF MICROBIOLOGICAL FILMS” (UNIVERSITEIT GENT, priority 2015, published 2018).
